Test results reported in patent publication US12157730B2, “Heteroaryl derivative, method for producing same, and pharmaceutical composition comprising same as effective component” (VORONOI INC., priority 2019, dated 2024).

Biological target: T1, Ba/F3 cell EGFR Exon20 ins NPH (Homo sapiens, UniProt P00533, INS773NPH)
T1 construct: expressed in transfected cells; host or cells: Ba/F3
Assay: Ba/F3 cell proliferation suppression, EGFR Exon20 ins NPH
Format: cell-based
Settings: GI50 class; Ba/F3 cell line with NPH inserted at Exon20 of EGFR; 72 hours
Summary of the method: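 Seed 3000–5000 cells/well; after 24 h add compound (12 conc., 0.3 nM–50 um final); incubate 72 h; add CellTiter-Glo, 10 min room temperature; read luminescence; GI50 from % growth vs control, triplicate.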

Compound	Ba/F3 (NPH) Activity
C=CC(=O)Nc1cc(Nc2cc(N3OCC[C@@H]3c3cccc(Cl)c3C)ncn2)c(OC)cc1N1CC[C@@H](N(C)C)C1 [compound 586, N-(5-((6-((R)-3-(3-chloro-2-methylphenyl)isoxazolidine-2-yl)pyrimidine-4-yl)amino)-2-((R)-3-(dimethylamino)pyrolidine-1-yl)-4-methoxyphenyl) acrylamide]	A (GI50 < 50 nM)
C=CC(=O)Nc1cc(Nc2cc(N3OCC[C@H]3Cc3ccccc3)ncn2)c(OC)cc1N1CCC(N2CCN(C3CC3)CC2)CC1 [compound 956, N-(5-((6-((R)-3-benzylisoxazolidine-2-yl)pyrimidine-4-yl)amino)-2-(4-(4-cyclopropylpiperazine-1-yl)piperidine-1-yl)-4-methoxyphenyl) acrylamide]	C (500 nM ≤ GI50 < 5000 nM)
C=CC(=O)Nc1cc(Nc2cc(N3OCC[C@@H]3Cc3cccc(Cl)c3Cl)ncn2)c(OC)cc1N1CCN(C)CC1 [compound 983, N-(5-((6-((S)-3-(2,3-dichlorobenzyl)isoxazolidine-2-yl)pyrimidine-4-yl)amino)-4-methoxy-2-(4-methylpiperazine-1-yl)phenyl)acrylamide]	A (GI50 < 50 nM)
C=CC(=O)Nc1cc(Nc2cc(N3OCC[C@@H]3c3cccc(Cl)c3Cl)ncn2)c(OC)cc1N1CCOCC1 [compound 517, N-(5-((6-((R)-3-(2,3-dichlorophenyl)isoxazolidine-2-yl)pyrimidine-4-yl)amino)-4-methoxy-2-morpholinophenyl) acrylamide]	A (GI50 < 50 nM)
C=CC(=O)Nc1cc(Nc2cc(N3OCC[C@@H]3c3cccc4ccccc34)ncn2)c(OC)cc1N(C)CCN(C)C [compound 440, N-(2-((2-(dimethylamino)ethyl) (methyl)amino)-4-methoxy-5-((6-((R)-3-(naphthalene-1-yl)isoxazolidine-2-yl)pyrimidine-4-yl)amino)phenyl)acrylamide]	A (GI50 < 50 nM)
C=CC(=O)Nc1cc(Nc2cc(N3OCC[C@@H]3c3ccc(F)c(Cl)c3F)ncn2)c(OC)cc1N1CCN(CC)CC1 [compound 600, N-(5-((6-((R)-3-(3-chloro-2,4-difluorophenyl)isoxazolidine-2-yl)pyrimidine-4-yl)amino)-2-(4-ethylpiperazine1-yl)-4-methoxyphenyl) acrylamide]	A (GI50 < 50 nM)
C=CC(=O)Nc1cc(Nc2cc(N3OCC[C@@H]3c3c(F)ccc(F)c3F)ncn2)c(OC)cc1N1CCC(N2CCN(C3CC3)[C@@H](C)C2)CC1 [Example 167, N-(2-(4-((S)-4-cyclopropyl-3-methylpiperazine-1-yl)piperidine-1-yl)-4-methoxy-5-((6-((R)-3-(2,3,6-trifluorophenyl)isoxazolidine-2-yl)pyrimidine-4-yl)amino)phenyl)acrylamide]	A (GI50 < 50 nM)
C=CC(=O)Nc1cc(Nc2cc(N3OCC[C@@H]3Cc3ccc(C(F)(F)F)cc3)ncn2)c(OC)cc1N1CCC(N2C[C@H]3C[C@@H]2CO3)CC1 [compound 1051, N-(2-(4-((1R,4R)-2-oxa-5-azabicyclo [2.2.1]heptane-5-yl)piperidine-1-yl)-4-methoxy-5-((6-((S)-3-(4-(trifluoromethyl)benzyl)isoxazolidine-2-yl)pyrimidine-4-yl)amino)phenyl)acrylamide]	A (GI50 < 50 nM)
C=CC(=O)Nc1cc(Nc2cc(N3OCC[C@@H]3c3cccc(Cl)c3C)ncn2)c(OC)cc1N1CCC(N2C[C@@H]3C[C@H]2CO3)CC1 [compound 531, N-(2-(4-((1S,4S)-2-oxa-5-azabicyclo[2.2.1]heptane-5-yl)piperidine-1-yl)-5-((6-((R)-3-(3-chloro-2-methylphenyl)isoxazolidine-2-yl)pyrimidine-4-yl)amino)-4-methoxyphenyl) acrylamide]	A (GI50 < 50 nM)
C=CC(=O)Nc1cc(Nc2cc(N3OCC[C@@H]3c3ccc(Cl)c(Cl)c3)ncn2)c(OC)cc1N1C[C@@H]2C[C@H]1CN2CC [compound 678, N-(5-((6-((R)-3-(3,4-dichlorophenyl)isoxazolidine-2-yl)pyrimidine-4-yl)amino)-2-((1S,4S)-5-ethyl-2,5-diazabicyclo[2.2.1]heptane-2-yl)-4-methoxyphenyl) acrylamide]	A (GI50 < 50 nM)
C=CC(=O)Nc1cc(Nc2cc(N3OCC[C@@H]3Cc3cccc(Cl)c3F)ncn2)c(OC)cc1N1CCC(N2C[C@H]3C[C@@H]2CO3)CC1 [compound 1021, N-(2-(4-((1R,4R)-2-oxa-5-azabicyclo [2.2.1]heptane-5-yl)piperidine-1-yl)-5-((6-((S)-3-(3-chloro-2-fluorobenzyl)isoxazolidine-2-yl)pyrimidine-4-yl)amino)-4-methoxyphenyl) acrylamide]	A (GI50 < 50 nM)
C=CC(=O)Nc1cc(Nc2cc(N3OCC[C@@H]3c3cccc(F)c3F)ncn2)c(OC)cc1N1C[C@H]2CCN(C)[C@H]2C1 [compound 875, N-(5-((6-((R)-3-(2,3-difluorophenyl)isoxazolidine-2-yl)pyrimidine-4-yl)amino)-4-methoxy-2-((3aR,6aR)-1-methylhexahydropyrrolo [3,4-b]pyrrole-5(1H)-yl)phenyl) acrylamide]	A (GI50 < 50 nM)

Continued, values first:

Ba/F3 (NPH) Activity	Compound
A (GI50 < 50 nM)	C=CC(=O)Nc1cc(Nc2cc(N3OCC[C@@H]3c3cccc(F)c3)ncn2)c(OC)cc1N1CCOCC1 [compound 840, N-(5-((6-((R)-3-(3-fluorophenyl)isoxazolidine-2-yl)pyrimidine-4-yl)amino)-4-methoxy-2-morpholinophenyl) acrylamide]
A (GI50 < 50 nM)	C=CC(=O)Nc1cc(Nc2cc(N3OCC[C@@H]3c3cccc(F)c3F)ncn2)c(OC)cc1N1CCC(N2CCOCC2)CC1 [compound 920, N-(5-((6-((R)-3-(2,3-difluorophenyl)isoxazolidine-2-yl)pyrimidine-4-yl)amino)-4-methoxy-2-(4-morpholinopiperidine-1-yl)phenyl)acrylamide]
A (GI50 < 50 nM)	C=CC(=O)Nc1cc(Nc2cc(N3OCC[C@@H]3c3cccc(F)c3)ncn2)c(OC)cc1N1CCN(C2CC2)CC1 [compound 830, N-(2-(4-cyclopropylpiperazine-1-yl)-5-((6-((R)-3-(3-fluorophenyl)isoxazolidine-2-yl)pyrimidine-4-yl)amino)-4-methoxyphenyl) acrylamide]
A (GI50 < 50 nM)	C=CC(=O)Nc1cc(Nc2cc(N3OCC[C@@H]3c3ccc(F)cc3F)ncn2)c(OC)cc1N1CCN(C2CC2)C[C@@H]1C [compound 474, N-(2-((S)-4-cyclopropyl-2-methylpiperazine-(2,4-1-yl)-5-((6-((R)-3-difluorophenyl)isoxazolidine-2-yl)pyrimidine-4-yl)amino)-4-methoxyphenyl) acrylamide]
A (GI50 < 50 nM)	C=CC(=O)Nc1cc(Nc2cc(N3OCC[C@@H]3c3cc(F)cc(Cl)c3)ncn2)c(OC)cc1N1CCC(N2C[C@@H](C)O[C@@H](C)C2)CC1 [compound 594, N-(5-((6-((R)-3-(3-chloro-5-fluorophenyl)isoxazolidine-2-yl)pyrimidine-4-yl)amino)-2-(4-((2S,6R)-2,6-dimethylmorpholino)piperidine-1-yl)-4-methoxyphenyl) acrylamide]
B (50 nM ≤ GI50 < 500 nM)	C=CC(=O)Nc1cc(Nc2cc(N3OCC[C@H]3c3c(F)ccc(F)c3Cl)ncn2)c(OC)cc1N1CCC(N2CCN(C3CC3)CC2)CC1 [compound 936, N-(5-((6-((S)-3-(2-chloro-3,6-difluorophenyl)isoxazolidine-2-yl)pyrimidine-4-yl)amino)-2-(4-(4-cyclopropylpiperazine-1-yl)piperidine-1-yl)-4-methoxyphenyl) acrylamide]
A (GI50 < 50 nM)	C=CC(=O)Nc1cc(Nc2cc(N3OCC[C@@H]3c3ccc(F)c(F)c3)ncn2)c(OC)cc1N1CCC(N2CCN(C)CC2)CC1 [compound 502, N-(5-((6-((R)-3-(3,4-difluorophenyl)isoxazolidine-2-yl)pyrimidine-4-yl)amino)-4-methoxy-2-(4-(4-methylpiperazine-1-yl)piperidine-1-yl)phenyl) acrylamide]
A (GI50 < 50 nM)	C=CC(=O)Nc1cc(Nc2cc(N3OCC[C@@H]3c3cccc(Cl)c3C)ncn2)c(OC)cc1N1CCC(N2CCN(C3CC3)[C@@H](C)C2)CC1 [Example 153, N-(5-((6-((R)-3-(3-chloro-2-methylphenyl)isoxazolidine-2-yl)pyrimidine-4-yl)amino)-2-(4-((S)-4-cyclopropyl-3-methylpiperazine-1-yl)piperidine-1-yl)-4-methoxyphenyl) acrylamide]
A (GI50 < 50 nM)	C=CC(=O)Nc1cc(Nc2cc(N3OCC[C@@H]3c3cccc(OC)c3)ncn2)c(OC)cc1N1CCC(N2C[C@H]3C[C@@H]2CO3)CC1 [compound 726, N-(2-(4-((1R,4R)-2-oxa-5-azabicyclo [2.2.1]heptane-5-yl)piperidine-1-yl)-4-methoxy-5-((6-((R)-3-(3-methoxyphenyl)isoxazolidine-2-yl)pyrimidine-4-yl)amino)phenyl)acrylamide]
A (GI50 < 50 nM)	C=CC(=O)Nc1cc(Nc2cc(N3OCC[C@@H]3c3cc(F)cc(F)c3)ncn2)c(OC)cc1N1CCC(N2CCN(C3CC3)C[C@H]2C)CC1 [Example 112, N-(2-(4-((R)-4-cyclopropyl-2-methylpiperazine-1-yl)piperidine-1-yl)-5-((6-((R)-3-(3,5-difluorophenyl)isoxazolidine-2-yl)pyrimidine-4-yl)amino)-4-methoxyphenyl) acrylamide]
B (50 nM ≤ GI50 < 500 nM)	C=CC(=O)Nc1cc(Nc2cc(N3OCC[C@@H]3c3cc(F)cc(F)c3)ncn2)c(OC)cc1N1CCN(C2COC2)CC1 [Example 273, N-(5-((6-((R)-3-(3,5-difluorophenyl)isoxazolidine-2-yl)pyrimidine-4-yl)amino)-4-methoxy-2-(4-(oxetane-3-yl)piperazine-1-yl)phenyl)acrylamide]
